{
  "source": "patent US10646565B2",
  "about": "“Treatment of alzheimer'S disease (AD) with an aluminum salt” (AFFIRIS AG, priority 2014, dated 2020)",
  "key": {"BSA": {"molecular_target": "BSA (Bos taurus, UniProt P02769)", "sequence (P02769 25-607)": "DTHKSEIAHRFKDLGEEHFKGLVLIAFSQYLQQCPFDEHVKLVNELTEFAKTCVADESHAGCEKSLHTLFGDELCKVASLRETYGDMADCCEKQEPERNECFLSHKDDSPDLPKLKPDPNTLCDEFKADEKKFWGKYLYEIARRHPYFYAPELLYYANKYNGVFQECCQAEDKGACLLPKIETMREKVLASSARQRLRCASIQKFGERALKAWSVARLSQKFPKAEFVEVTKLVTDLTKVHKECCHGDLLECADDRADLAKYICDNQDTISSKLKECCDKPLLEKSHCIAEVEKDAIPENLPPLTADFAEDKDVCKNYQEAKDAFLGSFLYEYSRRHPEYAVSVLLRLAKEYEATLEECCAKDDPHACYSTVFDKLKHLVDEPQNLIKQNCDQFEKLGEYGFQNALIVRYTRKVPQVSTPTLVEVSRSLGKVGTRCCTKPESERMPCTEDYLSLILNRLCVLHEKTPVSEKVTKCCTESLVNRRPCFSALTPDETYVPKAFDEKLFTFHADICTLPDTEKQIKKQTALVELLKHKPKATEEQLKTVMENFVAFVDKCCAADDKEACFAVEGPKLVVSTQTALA", "settings": "pH 7.4; cited from earlier work"}, "patients with early AD [1]": {"test_system": "patients with early AD", "assay": "AFF006 clinical trial: adapted ADAS-cog, adapted ADCS-ADL and Composite score", "assay_type": "in vivo, human", "excerpt": "The present invention provides for the first time an AD treatment that is disease modifying. The effectiveness of the treatment according to the present invention is proven by the parameters required by the drug authorisation authorities, especially the EMEA and the US-FDA. For example, the EMEA guideline for AD treatment requires primary endpoints reflecting the cognitive and the functional domain. Accordingly, a combined (Composite) score is used for the clinical assessment of the present invention. This composite score combines two established scores, one for the cognitive function (ADAS-cog (Alzheimer's Disease Assessment Scale-cognitive subscale)) and one for the functional ability (ADCS-ADL (Alzheimer's Disease Co-operative Study—Activities of Daily Living Inventory)). The adapted ADAS-cog combines items that assess cognitive function. The adapted ADCS-ADL includes items that are sensitive to functional ability. […]\nCombined composite according to the present invention: =1.67*Word recall+1.35*Orientation+1.42*Word Recognition+0.55*Recall Instructions+0.81*Spoken Language+1.01*Word Finding+5.42*ONB+0.15*VPAL+0.19*Category Fluency+0.28*Belongings+0.35*Shopping+0.23*Hobbies+0.38*Beverage+0.37*Meal+0.23*Current Events+0.26*TV+0.33*Keeping Appointments+0.37*Travel+0.33*Alone+0.35*Appliance+0.49*Clothes+0.36*Read+0.62*Telephone+0.33*Writing\nThe primary efficacy variables are the change from baseline (CFB) in cognition as measured by an adapted ADAS-cog, CFB in function as measured by an adapted ADCS-ADL and a combination of CFB in cognition and function as measured by a combined composite:\nADAS-cog and other items included in the adapted ADAS-cog were measured at Visits 1, 2, 3, 5, 6, 7, 8, 9 and 10 or EDV. ADCS-ADL were measured at Visits 2, 5, 6, 7, 8, 9 and 10 or EDV. Items that contributing to the combined primary outcome were measured at Visits 2, 5, 6, 7, 8, 9 and 10 or EDV.\nThe primary efficacy outcomes all range from 0 to 100. […] Before a composite was calculated, contributing items that are scored in the opposite direction were reversed. […]"}, "Tg2576 mice": {"test_system": "Tg2576 mice", "assay": "Contextual fear conditioning (CFC) in Tg2576 mice", "settings": "6 monthly s.c. injections, Alum equivalent to 2 mg/ml"}, "amyloid deposits": {"test_system": "amyloid deposits", "assay": "Cerebral amyloid load by immunofluorescence (mAb 3A5) in Tg2576 mice", "assay_type": "in vivo", "settings": "6 monthly s.c. injections, sacrificed at 14 months of age"}, "patients with early AD [2]": {"test_system": "patients with early AD", "assay": "AFF006 clinical trial: adverse event summary of local reactions", "assay_type": "in vivo, human", "protocol": "AFF006 was conducted as a randomized, placebo-controlled, parallel group, double-blind, multi-center phase II study and assessed the clinical and immunological activity as well as the safety and tolerability of repeated s.c. administrations of i.a. aluminium (different doses) in patients with early AD, as defined in the protocol. It was performed in a total of 6 countries: Austria, France, Germany, Slovakia, Czech Republic and Croatia.\nThe clinical trial comprised 10 regular outpatient visits and 6 telephone interviews. Up to four weeks before start of treatment, a screening visit (Visit 1) was performed to ensure suitability of the patients for the clinical trial and to establish the patients' baseline characteristics. Following screening, eligible patients were randomly allocated to the treatment groups. After randomization at week 0, patients received 6 injections with either 1 or 2 mg aluminium. Injections were applied s.c. by the investigator at weeks 0, 4, 8, 12, 40 and 65 (Visit 2, 3, 4, 5, 7 and 9).\nAt Visits 2, 3, 4, 5, 6, 7 and 9 possible local and systemic reactions to the vaccine and vital signs (blood pressure, heart rate, respiratory rate and body temperature) were assessed. In addition, a physical and neurological examination was performed. Efficacy parameters were assessed at Visits 1, 2, 3, 5, 6, 7, 8, 9, 10. The final visit (Visit 10) was performed twelve weeks after the last administration of study drug (Visit 9). An early discontinuation visit (EDV) was performed when a patient discontinued from the clinical trial.\nDuring the study Visits 2, 3, 4, 5, 7 and 9 the patient received study drug by the investigator, in total: six injections over a 65-week treatment period. Injections were applied to the external surface of the upper arm, approximately 8-10 cm above the elbow. Prerequisite regarding the actual site was the presence of an intact regional lymph node station. If the draining lymph node stations of both upper arms were not intact, injection was placed into the thigh close to the inguinal lymph nodes. Two alternating injection sites (e.g. left and right upper arm, left upper arm and left thigh) were used throughout the 6 injections.\nInjections were applied to the subcutaneous tissue (s.c.). Special care was taken to avoid […] application by careful aspiration before each injection. All administrations were performed at the trial site.\nSafety evaluations included the following:\nadverse events (AEs) and serious adverse events (SAEs) (number of patients who withdrew due to AEs; reason for withdrawal)"}},
  "note": "Entries after “also recorded” stand apart in the source; their conditions may differ.",
  "data": [
    {"substance": "aluminium oxyhydroxide", "values": [
      {"measurement": "maximal binding capacity to BSA (pI 4.9)", "setting": "BSA", "value": "2.2±0.1", "unit": "mg protein/mg aluminum"},
      {"measurement": "parameters informing on the progression of the disease (change in Composite score)", "setting": "patients with early AD [1]; 2 mg group vs 1 mg group, all patients, FIG. 1", "value": "compares favourably"},
      {"measurement": "Adapted ADAS-cog: disease progression", "setting": "patients with early AD [1]; 2 mg group, over 18 months, FIG. 3", "value": "Slowing of disease progression"},
      {"measurement": "effect on disease progression (Composite score) in mild population", "setting": "patients with early AD [1]; mild population (baseline MMSE score of 24 and higher), 2 mg vs 1 mg, FIG. 2", "value": "most pronounced in the cohort of patients in earlier disease stages"},
      {"measurement": "contextual memory and learning (CFC, % of time freezing)", "setting": "Tg2576 mice; FIG. 7, listed as Alum", "value": "showed similar effects as detectable with Aβ targeting vaccines"},
      {"measurement": "contextual memory and learning (CFC, % of time freezing)", "setting": "Tg2576 mice; FIG. 7, listed as aluminium-oxyhydroxide", "value": "lower cognitive decline significantly"},
      {"measurement": "cerebral amyloid load (relative brain area covered by amyloid deposits)", "setting": "amyloid deposits; IF-staining mAb 3A5, FIG. 8, listed as Alum", "value": "did not significantly alter amyloid deposition; also recorded: slight but insignificant reduction in Aβ deposition"},
      {"measurement": "cerebral amyloid load (relative brain area covered by amyloid deposits)", "setting": "amyloid deposits; IF-staining mAb 3A5, FIG. 8, listed as aluminium-oxyhydroxide", "value": "without significantly changing cerebral Aβ levels"},
      {"measurement": "Musculoskeletal and Connective Tissue Disorders: Pain in Extremity: events", "setting": "patients with early AD [2]; 1 mg s.c., N = 48", "value": 0},
      {"measurement": "Musculoskeletal and Connective Tissue Disorders: Pain in Extremity: subjects %", "setting": "patients with early AD [2]; 1 mg s.c., N = 48", "value": 0.0, "unit": "%"},
      {"measurement": "Musculoskeletal and Connective Tissue Disorders: Pain in Extremity: subjects n", "setting": "patients with early AD [2]; 1 mg s.c., N = 48", "value": 0},
      {"measurement": "Vascular Disorders: Haematoma: subjects n", "setting": "patients with early AD [2]; 1 mg s.c., N = 48", "value": 0},
      {"measurement": "Musculoskeletal and Connective Tissue Disorders: Pain in Extremity: events", "setting": "patients with early AD [2]; 2 mg s.c., N = 51", "value": 1},
      {"measurement": "Musculoskeletal and Connective Tissue Disorders: Pain in Extremity: subjects n", "setting": "patients with early AD [2]; 2 mg s.c., N = 51", "value": 1},
      {"measurement": "Vascular Disorders: Haematoma: subjects n", "setting": "patients with early AD [2]; 2 mg s.c., N = 51", "value": 0}
    ]}
  ]
}
